Experiments:
PI3K (p110δ/p85α) (h) = PI3K (p110δ/p85α) (h) (Homo sapiens (Human), UniProt O00329); experiment: PI3K (p110δ/p85α) (h) non-radioactive HTRF kinase assay; type: biochemical
[1] = Pharmacokinetics after intravenous and oral administration in rats; type: in vivo, rat; details: for clearance (CL) / AUC(0-t) / half-life / Vd: iv dosing, dose 1 mg/kg; for bioavailability / AUC(0-t) / half-life / Vd: rat, plasma; for bioavailability: iv dose 1 mg/kg, oral dose generally 5 or 10 mg/kg; for Vd: read-out: Vss
[2] = Compound stability in human liver microsomes; type: in vitro ADME; details: for half-life at 5 μM: human liver microsomes 0.5 mg protein/mL, compound 5 μM, NADPH 1.0 mM, 37° C.; for CLint scaled at 5 μM: human liver microsomes, in vivo CLint extrapolated
[3] = Compound stability in rat liver microsomes; type: in vitro ADME; details: pH 7.4; for half-life at 5 μM: rat liver microsomes 0.5 mg protein/mL, compound 5 μM, NADPH 1.0 mM, 37° C.; for CLint scaled at 5 μM: rat liver microsomes, in vivo CLint extrapolated

Sequence of PI3K (p110δ/p85α) (h) (O00329 whole entry): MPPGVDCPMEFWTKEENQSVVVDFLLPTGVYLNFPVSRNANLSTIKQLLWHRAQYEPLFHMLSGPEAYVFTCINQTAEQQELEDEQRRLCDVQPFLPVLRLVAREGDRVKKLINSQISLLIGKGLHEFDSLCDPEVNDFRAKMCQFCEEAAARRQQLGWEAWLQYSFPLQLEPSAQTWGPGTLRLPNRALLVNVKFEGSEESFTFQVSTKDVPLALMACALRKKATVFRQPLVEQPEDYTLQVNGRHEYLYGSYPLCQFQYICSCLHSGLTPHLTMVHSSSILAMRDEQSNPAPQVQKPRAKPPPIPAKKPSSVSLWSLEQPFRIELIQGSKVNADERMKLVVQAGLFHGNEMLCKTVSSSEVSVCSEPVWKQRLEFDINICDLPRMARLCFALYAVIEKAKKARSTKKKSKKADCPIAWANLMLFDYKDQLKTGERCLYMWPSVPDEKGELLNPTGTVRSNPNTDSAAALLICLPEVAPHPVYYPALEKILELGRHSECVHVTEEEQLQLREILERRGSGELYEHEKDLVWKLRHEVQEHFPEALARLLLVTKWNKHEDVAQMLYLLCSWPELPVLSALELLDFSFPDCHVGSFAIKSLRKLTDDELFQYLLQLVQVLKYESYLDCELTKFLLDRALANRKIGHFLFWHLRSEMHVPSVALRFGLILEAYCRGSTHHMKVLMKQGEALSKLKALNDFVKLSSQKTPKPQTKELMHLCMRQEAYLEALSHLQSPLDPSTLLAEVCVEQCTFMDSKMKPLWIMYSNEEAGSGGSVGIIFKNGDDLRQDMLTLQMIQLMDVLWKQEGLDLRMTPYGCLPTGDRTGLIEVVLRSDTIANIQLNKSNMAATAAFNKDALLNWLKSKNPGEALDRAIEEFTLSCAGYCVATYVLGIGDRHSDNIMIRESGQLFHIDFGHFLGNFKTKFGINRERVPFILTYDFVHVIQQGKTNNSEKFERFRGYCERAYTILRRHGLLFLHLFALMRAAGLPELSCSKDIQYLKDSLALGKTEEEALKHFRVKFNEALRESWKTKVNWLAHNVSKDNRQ
Sequence of PI3K (p110δ/p85α) (h) (P27986 whole entry partner): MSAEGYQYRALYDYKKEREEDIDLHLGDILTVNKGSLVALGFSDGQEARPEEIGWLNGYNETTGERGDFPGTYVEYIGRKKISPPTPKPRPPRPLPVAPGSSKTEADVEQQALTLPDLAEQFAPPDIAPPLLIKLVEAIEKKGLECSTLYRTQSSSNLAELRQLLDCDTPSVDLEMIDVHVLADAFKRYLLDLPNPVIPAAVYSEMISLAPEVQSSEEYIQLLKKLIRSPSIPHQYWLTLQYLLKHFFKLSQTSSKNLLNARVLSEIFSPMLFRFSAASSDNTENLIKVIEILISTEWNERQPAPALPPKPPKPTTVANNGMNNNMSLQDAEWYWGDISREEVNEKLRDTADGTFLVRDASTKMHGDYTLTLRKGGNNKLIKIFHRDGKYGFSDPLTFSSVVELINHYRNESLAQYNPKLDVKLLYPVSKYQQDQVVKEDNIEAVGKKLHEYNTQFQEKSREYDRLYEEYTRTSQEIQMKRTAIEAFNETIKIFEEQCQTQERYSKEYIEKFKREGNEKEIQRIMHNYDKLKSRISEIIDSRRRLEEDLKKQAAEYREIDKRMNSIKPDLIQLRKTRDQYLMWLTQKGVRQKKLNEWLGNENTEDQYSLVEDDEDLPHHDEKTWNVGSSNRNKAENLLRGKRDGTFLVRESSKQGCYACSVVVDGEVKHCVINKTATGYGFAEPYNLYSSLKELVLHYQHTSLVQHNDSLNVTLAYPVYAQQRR

Compound	IC50 (PI3K (p110δ/p85α) (h))	clearance (CL) [1]	bioavailability [1]	AUC(0-t) [1]	half-life [1]	Vd [1]	half-life at 5 μM [2]	CLint scaled at 5 μM [2]	half-life at 5 μM [3]	CLint scaled at 5 μM [3]
CC[C@H](Nc1ncnc(N)c1-c1noc(C)n1)c1nc2cccc(Cl)c2c(=O)n1C1CC1 [Ex. 12, (S)-2-(1-((6-amino-5-(5-methyl-1,2,4-oxadiazol-3-yl)pyrimidin-4-yl)amino)-propyl)-5-chloro-3-cyclopropylquinazolin-4(3H)-one]	48 nM	1.91 L/h/kg	48.9%	518 ng·h/mL	76.8 min	3.14 L/kg	20.6 min	84.6 mL/min/kg	31 min	80.2 mL/min/kg
CC[C@H](Nc1ncnc(N)c1-c1ccon1)c1nc2cccc(Cl)c2c(=O)n1C1CC1 [Ex. 14, (S)-2-(1-((6-amino-5-(isoxazol-3-yl)pyrimidin-4-yl)amino)propyl)-5-chloro-3-cyclopropylquinazolin-4(3H)-one]	20 nM	2.80 L/h/kg	23.1%	362 ng·h/mL	45.6 min	2.18 L/kg	–	–	–	–
CC[C@@H](Nc1ncnc(N)c1-c1nc(C)no1)c1nc2cccc(Cl)c2c(=O)n1C1CC1 [Ex. 19, (R)-2-(1-((6-amino-5-(3-methyl-1,2,4-oxadiazol-5-yl)pyrimidin-4-yl)amino)propyl)-5-chloro-3-cyclopropylquinazolin-4(3H)-one]	> 3000 nM	7.62 L/h/kg	5.49%	132 ng·h/mL	51.6 min	6.98 L/kg	52.4 min	47.4 mL/min/kg	19.7 min	126 mL/min/kg
CC[C@H](Nc1ncnc(N)c1-c1nnc(C)o1)c1nc2cccc(C)c2c(=O)n1C1CC1 [Ex. 20, (S)-2-(1-((6-amino-5-(5-methyl-1,3,4-oxadiazol-2-yl)pyrimidin-4-yl)amino)propyl)-3-cyclopropyl-5-methylquinazolin-4(3H)-one]	49 nM	4.64 L/h/kg	79%	215 ng·h/mL	63 min	6.35 L/kg	9.96 min	249 mL/min/kg	9.27 min	268 mL/min/kg
CC[C@H](Nc1ncnc(N)c1-c1nc(C)no1)c1nc2cccc(C)c2c(=O)n1C1CC1 [Ex. 21, (S)-2-(1-((6-amino-5-(3-methyl-1,2,4-oxadiazol-5-yl)pyrimidin-4-yl)amino)-propyl)-3-cyclopropyl-5-methylquinazolin-4(3H)-one]	19 nM	3.35 L/h/kg	57.5%	292 ng·h/mL	96.6 min	6.24 L/kg	25.4 min	97.7 mL/min/kg	25 min	99.3 mL/min/kg
CC[C@H](Nc1ncnc(N)c1-c1nc(C)no1)c1nc2ccccc2c(=O)n1-c1ccccc1F [Ex. 22, (S)-2-(1-((6-amino-5-(3-methyl-1,2,4-oxadiazol-5-yl)pyrimidin-4-yl)amino)propyl)-3-(2-fluorophenyl)quinazolin-4(3H)-one]	26 nM	9.56 L/h/kg	29.8%	104 ng·h/mL	51 min	9.46 L/kg	15.3 min	163 mL/min/kg	7.95 min	312 mL/min/kg
CC[C@H](Nc1ncnc(N)c1-c1nc(C)no1)c1nc2cccc(F)c2c(=O)n1C1CC1 [Ex. 23, (S)-2-(1-((6-amino-5-(3-methyl-1,2,4-oxadiazol-5-yl)pyrimidin-4-yl)amino)-propyl)-3-cyclopropyl-5-fluoroquinazolin-4(3H)-one]	52 nM	4.28 L/h/kg	34.1%	237 ng·h/mL	56.4 min	5.02 L/kg	44.3 min	56 mL/min/kg	56.9 min	43.7 mL/min/kg
CC[C@H](Nc1ncnc(N)c1-c1nnc(C)o1)c1nc2cccc(F)c2c(=O)n1C1CC1 [Ex. 25, (S)-2-(1-((6-amino-5-(5-methyl-1,3,4-oxadiazol-2-yl)pyrimidin-4-yl)amino)-propyl)-3-cyclopropyl-5-fluoroquinazolin-4(3H)-one]	298 nM	4.54 L/h/kg	62.3%	223 ng·h/mL	48.6 min	3.77 L/kg	150 min	16.6 mL/min/kg	49.9 min	49.8 mL/min/kg
CC[C@H](Nc1ncnc(N)c1-c1ncn(C)n1)c1nc2cccc(F)c2c(=O)n1C1CC1 [Ex. 26, (S)-2-(1-((6-amino-5-(1-methyl-1H-1,2,4-triazol-3-yl)pyrimidin-4-yl)amino)propyl)-3-cyclopropyl-5-fluoroquinazolin-4(3H)-one]	2290 nM	2.22 L/h/kg	45.8%	443 ng·h/mL	128 min	2.5 L/kg	74.5 min	33.4 mL/min/kg	66.3 min	37.4 mL/min/kg
CC[C@H](Nc1ncnc(N)c1-c1nc(C)no1)c1nc2cccc(C)c2c(=O)n1-c1ccccc1C [Ex. 27, (S)-2-(1-((6-amino-5-(3-methyl-1,2,4-oxadiazol-5-yl)pyrimidin-4-yl)amino)-propyl)-5-methyl-3-(o-tolyl)quinazolin-4(3H)-one]	13 nM	3.70 L/h/kg	49.8%	263 ng·h/mL	111 min	6.11 L/kg	14.9 min	167 mL/min/kg	16.3 min	152 mL/min/kg
CC[C@H](Nc1ncnc(N)c1-c1nc(COC)n(C)n1)c1nc2cccc(Cl)c2c(=O)n1C1CC1 [Ex. 46, (S)-2-(1-((6-amino-5-(5-(methoxymethyl)-1-methyl-1H-1,2,4-triazol-3-yl)pyrimidin-4-yl)amino)propyl)-5-chloro-3-cyclopropylquinazolin-4(3H)-one]	–	3.35 L/h/kg	20.2%	300 ng·h/mL	42.6 min	3.65 L/kg	6.1 min	285 mL/min/kg	3.86 min	644 mL/min/kg
CC[C@H](Nc1ncnc(N)c1-c1ccon1)c1nc2cccc(C)c2c(=O)n1C1CC1 [Ex. 47, (S)-2-(1-((6-amino-5-(isoxazol-3-yl)pyrimidin-4-yl)amino)propyl)-3-cyclopropyl-5-methylquinazolin-4(3H)-one]	–	366 L/h/kg	23.6%	271 ng·h/mL	56.4 min	3.16 L/kg	27.1 min	91.6 mL/min/kg	7.63 min	325 mL/min/kg
CC[C@H](Nc1ncnc(N)c1-c1ccon1)c1nc2cccc(F)c2c(=O)n1C1CC1 [Ex. 48, (S)-2-(1-((6-amino-5-(isoxazol-3-yl)pyrimidin-4-yl)amino)propyl)-3-cyclopropyl-5-fluoroquinazolin-4(3H)-one]	–	4.04 L/h/kg	32.7%	254 ng·h/mL	40.8 min	2.42 L/kg	136 min	12.8 mL/min/kg	27 min	91.8 mL/min/kg
CC[C@@H](Nc1ncnc(N)c1-c1ccon1)c1nc2cccc(Cl)c2c(=O)n1C1CC1 [Ex. 49, (R)-2-(1-((6-amino-5-(isoxazol-3-yl)pyrimidin-4-yl)amino)propyl)-5-chloro-3-cyclopropylquinazolin-4(3H)-one]	–	5.12 L/h/kg	4.37%	196 ng·h/mL	39.6 min	4.1 L/kg	43.8 min	39.7 mL/min/kg	2.43 min	1020 mL/min/kg
CC[C@H](Nc1ncnc(N)c1-c1ncn(C)n1)c1nc2cccc(Cl)c2c(=O)n1-c1ccc(F)cc1 [Ex. 50, (S)-2-(1-((6-amino-5-(1-methyl-1H-1,2,4-triazol-3-yl)pyrimidin-4-yl)amino)propyl)-5-chloro-3-(4-fluorophenyl)quinazolin-4(3H)-one]	–	5.20 L/h/kg	28.3%	192 ng·h/mL	68.4 min	3.96 L/kg	11.4 min	152 mL/min/kg	13.3 min	186 mL/min/kg
CC[C@H](Nc1ncnc(N)c1-c1nc(C)co1)c1nc2cccc(Cl)c2c(=O)n1C1CC1 [Ex. 52, (S)-2-(1-((6-amino-5-(4-methyloxazol-2-yl)pyrimidin-4-yl)amino)propyl)-5-chloro-3-cyclopropylquinazolin-4(3H)-one]	–	5.14 L/h/kg	21.3%	194 ng·h/mL	73.2 min	6.07 L/kg	7.72 min	322 mL/min/kg	6.71 min	370 mL/min/kg
CC[C@H](Nc1ncnc(N)c1-c1nc(C(N)=O)n(C)n1)c1nc2cccc(Cl)c2c(=O)n1C1CC1 [Ex. 58, (S)-3-(4-amino-6-((1-(5-chloro-3-cyclopropyl-4-oxo-3,4-dihydroquinazolin-2-yl)propyl)amino)pyrimidin-5-yl)-1-methyl-1H-1,2,4-triazole-5-carboxamide]	–	1.57 L/h/kg	106%	580 ng·h/mL	143 min	5.03 L/kg	61.8 min	28.1 mL/min/kg	122 min	20.4 mL/min/kg

Reference: US9670194B2 (Calitor Sciences, LLC, priority 2013, dated 2017)
